In patent US20130338178A1, “SIRTUIN MODULATORS AS INHIBITORS OF CYTOMEGALOVIRUS” (THE TRUSTEES OF PRINCETON UNIVERSITY, priority 2011, published 2013):
Read-outs that look alike come from different tables or passages of the source.

Assays:
HCMV pUL99 = assay: Late viral pUL99 expression and cytopathic effect in HCMV infected MRC5 cells; format: cell-based, human cytomegalovirus
[1] = system: tumor necrosis factor alpha (TNFα) release; settings: cited from earlier work
SIRT2 [2] = target: T1, SIRT2 (Homo sapiens, UniProt Q8IXJ6); settings: 100 μM; cited from earlier work
T1 sequence (Q8IXJ6 1-389): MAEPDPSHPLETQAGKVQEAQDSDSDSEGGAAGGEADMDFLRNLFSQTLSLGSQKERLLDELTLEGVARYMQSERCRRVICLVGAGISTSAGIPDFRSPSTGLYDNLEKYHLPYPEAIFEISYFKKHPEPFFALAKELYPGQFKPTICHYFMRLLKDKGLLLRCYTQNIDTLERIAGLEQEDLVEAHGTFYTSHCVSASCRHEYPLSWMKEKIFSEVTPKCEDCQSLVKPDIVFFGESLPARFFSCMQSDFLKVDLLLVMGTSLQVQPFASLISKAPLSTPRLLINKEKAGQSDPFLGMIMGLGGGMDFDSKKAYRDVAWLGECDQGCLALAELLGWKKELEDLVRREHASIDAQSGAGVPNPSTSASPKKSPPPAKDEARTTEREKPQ

SIRT1 [3] = target: T2, SIRT1 (Homo sapiens, UniProt Q96EB6); settings: cited from earlier work
T2 sequence (Q96EB6 1-747): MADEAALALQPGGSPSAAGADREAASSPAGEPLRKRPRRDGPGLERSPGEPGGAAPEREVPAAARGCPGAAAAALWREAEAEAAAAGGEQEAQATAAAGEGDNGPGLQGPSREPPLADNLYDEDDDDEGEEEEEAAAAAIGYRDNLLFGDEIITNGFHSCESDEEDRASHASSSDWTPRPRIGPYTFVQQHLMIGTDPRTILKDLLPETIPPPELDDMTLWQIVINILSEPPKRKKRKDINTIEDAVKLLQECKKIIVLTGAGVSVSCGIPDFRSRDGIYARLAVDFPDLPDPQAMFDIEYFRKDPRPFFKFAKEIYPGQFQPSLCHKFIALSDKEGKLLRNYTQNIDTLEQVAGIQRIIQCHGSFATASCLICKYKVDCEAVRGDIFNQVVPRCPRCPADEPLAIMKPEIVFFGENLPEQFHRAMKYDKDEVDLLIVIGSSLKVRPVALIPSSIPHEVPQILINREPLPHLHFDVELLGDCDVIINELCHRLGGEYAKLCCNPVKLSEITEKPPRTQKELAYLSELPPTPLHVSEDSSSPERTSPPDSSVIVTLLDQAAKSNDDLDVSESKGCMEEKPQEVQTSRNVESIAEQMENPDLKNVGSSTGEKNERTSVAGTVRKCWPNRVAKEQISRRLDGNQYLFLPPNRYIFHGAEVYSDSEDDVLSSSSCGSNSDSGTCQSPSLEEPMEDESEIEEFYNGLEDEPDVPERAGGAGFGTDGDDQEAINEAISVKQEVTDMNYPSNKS

HCMV = assay: Yield of infectious HCMV from drug-treated infected MRC5 fibroblasts; format: cell-based, human cytomegalovirus; settings: for reduction of the yield of infectious HCMV by a factor of: MRC5, 10% fetal calf serum, added 4 hours after infection
SIRT3 = target: T3, SIRT3 (Homo sapiens, UniProt Q9NTG7); settings: cited from earlier work
T3 sequence (Q9NTG7 1-399): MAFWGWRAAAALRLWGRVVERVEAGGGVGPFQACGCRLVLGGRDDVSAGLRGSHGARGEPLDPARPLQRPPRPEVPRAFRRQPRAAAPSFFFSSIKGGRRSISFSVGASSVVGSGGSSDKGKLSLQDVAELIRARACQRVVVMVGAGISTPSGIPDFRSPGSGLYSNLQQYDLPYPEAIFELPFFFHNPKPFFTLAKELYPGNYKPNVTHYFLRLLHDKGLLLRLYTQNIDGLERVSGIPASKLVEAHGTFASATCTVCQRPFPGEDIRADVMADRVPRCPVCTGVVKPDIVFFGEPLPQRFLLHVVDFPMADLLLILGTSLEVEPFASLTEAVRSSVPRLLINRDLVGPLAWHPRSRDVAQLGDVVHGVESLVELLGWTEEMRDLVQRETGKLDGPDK

SIRT1 [4] = target: T2, SIRT1; settings: cited from earlier work; remark: listed apart in the source
SIRT2 [5] = target: T1, SIRT2; settings: cited from earlier work
Hst2 = Hst2 (Saccharomyces cerevisiae, UniProt P53686); settings: cited from earlier work
[6] = system: Influenza A (WSN/33/A, PR8); format: cell-based, influenza A virus
[7] = mice; cited from earlier work
[8] = system: Burkitt lymphoma xenografts; settings: mouse, in vivo; cited from earlier work

Hst2, sequence (P53686 whole entry): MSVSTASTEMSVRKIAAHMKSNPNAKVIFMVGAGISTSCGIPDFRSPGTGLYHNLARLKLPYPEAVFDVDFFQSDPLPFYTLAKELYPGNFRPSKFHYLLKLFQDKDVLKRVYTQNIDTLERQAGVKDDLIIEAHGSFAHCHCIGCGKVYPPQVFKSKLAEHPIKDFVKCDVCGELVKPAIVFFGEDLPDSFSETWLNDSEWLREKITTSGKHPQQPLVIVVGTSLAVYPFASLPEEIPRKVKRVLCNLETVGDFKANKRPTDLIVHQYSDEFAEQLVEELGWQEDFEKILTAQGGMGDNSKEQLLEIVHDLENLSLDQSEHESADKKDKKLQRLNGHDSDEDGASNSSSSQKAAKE

Nc1c(S(=O)(=O)c2ccccc2)c2nc3ccccc3nc2n1-c1ccc(F)cc1 [CAY10602]
pUL99 expression (HCMV pUL99; 25 μM): almost completely inhibited
suppression of TNFα release, extent relative to resveratrol [1]: 10 fold

Oc1ccc(C=Cc2cc(O)cc(O)c2)cc1 [Resveratrol]
activation of SIRT2 (SIRT2 [2]): does not activate
increase of SIRT1 activity (SIRT1 [3]; 46 μM): 1.5 fold
increase of SIRT1 activity (SIRT1 [3]; 100 μM): 13 fold
EC1.5: The concentration to activate 1.5-fold (SIRT1 [3]): 46 µM
cytopathic effect of HCMV (HCMV pUL99; HCMV infected MRC5 cells, added 4 hours after infection, data not shown): inhibited
expression of late viral pUL99 (HCMV pUL99; dose dependent, data not shown): substantially reduced
reduction of the yield of infectious HCMV by a factor of (HCMV; 50 μM): > 18 fold
reduction of the yield of infectious HCMV by a factor of (HCMV; 100 μM): > 100 fold

CC(=O)Nc1ccc(NC(=S)NC(=O)c2ccc(C(C)(C)C)cc2)cc1 [Tenovin 1]
IC50 (SIRT3): 67 µM
IC50 (SIRT1 [4]): 21 µM
IC50 (SIRT2 [5]): 10 µM

Cambinol
pUL99 accumulation (HCMV pUL99; 50 μM, data not shown): substantial block
IC50 (Hst2): > 1000 µM
inhibition of influenza A in combination with oseltamivir [6]: cooperated with oseltamivir
production of infectious Influenza A progeny [6]: inhibited
tolerability [7]: well-tolerated
Burkitt lymphoma xenografts [8]: inhibits
virus yield (HCMV; 50 μM, 96 h after infection, limit of detection): < 10^2 IU/ml
